Literature values, collected in patent US7183417B2, “Simple stereocontrolled synthesis of salinosporamide A” (priority 2004, dated 2007).

Tests used:
proteasome = settings: qualitative statement from the literature
many tumor cell lines = settings: read-out: in vitro cytotoxic activity IC50

Row | Structure (SMILES) | proteasome inhibition (in words) (proteasome) | IC50 (many tumor cell lines) [nM]
1 | CC(C)[C@H](O)[C@@]12NC(=O)[C@H](C)[C@@H]1OC2=O [omuralide, reference compound] | potent inhibitor of proteasome function | –
2 | C[C@@]12OC(=O)[C@]1([C@@H](O)[C@@H]1C=CCCC1)NC(=O)[C@@H]2CCCl [Salinosporamide A] | even more effective proteasome inhibitor than omuralide | ≤ 10
